# Laboratory results reported in patent US8388931B2, “99m Tc-labeled triphenylphosphonium derivative contrasting agents and molecular probes for early detection and imaging of breast tumors” (priority 2008, dated 2013).
# Experiments:
# [1] = Radio-stability in physiological buffer by radioHPLC; format: physicochemical
# Description: Mito10-MAG3 was radiolabeled with ^99mTc, using a protocol previously reported with minor modifications. Specifically, an aliquot of Mito10-MAG3 (30 μg) was re-suspended in 450 μl of freshly prepared labeling solution containing 7.5 mg tartaric acid, 9.5 mg ammonium acetate, 10 μg stannous chloride, pH 8.3. After the addition of ^99mTc pertechnetate (3 mCi), the labeling mixture was incubated at 65° C. for one hour. For quality control purposes, the radiolabeled product was routinely analyzed by radioHPLC (4.6×250 mm C18 reversed phase column) at room temperature, with the following method.
# Buffer A contained 10 mM phosphate buffer (pH 6.8) and buffer B contained 100% acetonitrile. A baseline of 90% A and 10% B was run for 10 min, followed by a linear gradient with the mobile phase reaching 10% A and 90% B at 40 min. To determine the radio-stability, the radiopharmaceutical was maintained in physiological buffer for up to 48 hours, and the radiochemical purity was examined by radioHPLC.
# [2] = test system: DMBA-induced breast carcinoma; assay: In vivo gamma camera imaging of DMBA-induced breast carcinoma in rats; parameters: species or system rats (female Sprague Dawley)
# Description: The animal protocol was approved by institutional IACUC review and followed NIH guidelines. The rat model of DMBA-induced breast carcinoma was used.
# As an initial feasibility study, rats were induced with 65 mg/kg DMBA dissolved in sesame oil via a single oral gavage to the stomach. […] Static images were acquired on a GE XRT gamma camera using a high-resolution parallel-hole collimator, 512×512 matrix size, 22.5×22.5 cm field of view, 140±15 keV energy window, 100 k counts. Unexpectedly, apart from the established palpable carcinomas, additional small (millimeter size) tumors were discovered by this imaging technique in the same animals. This finding promoted a longitudinal study to investigate the early detection of neoplastic growth using ^99mTc-Mito10-MAG3.
# Six 48-day-old female rats were injected with 65 mg/kg DMBA. At each week after DMBA induction, the rats were imaged using the following protocol. Each rat was anesthetized with 1.6% isoflurane in room air supplemented with oxygen. […] Dynamic images were continuously acquired at one frame per min for 90 min using the imaging parameters set forth hereinabove. The weekly imaging regiment was continued for all six rats until palpable tumors became detectable, which typically takes place between seven to nine weeks after the administration of DMBA. Due to the relatively short physical half-life of ^99mTc (6 hr), no residual signal, therefore, no cross-contamination is detectable from the previous injection the week before.
# ^99mTc-MIBI of clinical formulation was purchased from Bristol Myers Squibb. […] Dynamic images were acquired in identical fashion following 99mTc-MIBI injection.
# The female Sprague Dawley rats have six pairs of mammary glands, among which glands a and b are away from the hepatic/gastrointestinal region. (FIG. 9, Panel A). Since the typical biodistribution of a lipophilic radiopharmaceutical in the abdominal region precludes reliable imaging of breast tissues below the diaphragm, mammary glands shown in Panels C, D, E and F were excluded from the data analysis. This exclusion also was based on the fact that such spatial distribution of mammary glands is irrelevant to that of the human anatomy.
# Imaging data analysis was carried out using an inbuilt software, by carefully drawing a region of interest (ROI) on the tumor site to determine the radioactivity counts in the ROI. […] Radioactivity counts were determined in each ROI. Tumor-to-normal and tumor-to-muscle ratios were calculated as the count ratio between the two ROIs.
# The rats were sacrificed by CO2 asphyxiation and the number and location of the mammary tumors were recorded at necropsy. The tumors were dissected, with the diameter and weight measured and documented. […]
smiles,measurement,setting,value
CC(=O)[S+]1CC(=O)[N]2CC(=O)[N]3CC(=O)[N](CC(=O)NCCCCCCCCCC[P+](c4ccccc4)(c4ccccc4)c4ccccc4)[99Tc]321=[O].[Br-] (stereo not shown) [^99mTc-Mito10-MAG3],time radioactivity bound to Mito10-MAG3 remained persistent after labeling,"[1]; physiological solution, radioHPLC",at least 48 hours
same,change in radiochemical purity after radiolabeling,"[1]; radioHPLC at 0, 24 and 48 hr after radiolabeling",no significant change in radiochemical purity
same,uptake in small breast tumors that escaped detection by palpation,"[2]; 15 μg via tail vein, gamma camera",significant focal uptake
same,weight of small non-palpable tumor detected by imaging,"[2]; feasibility experiment, 11 weeks after DMBA induction, at dissection",18 mg
